Molecular target: T1, human androgen receptor (hAR) (Homo sapiens, UniProt P10275)
T1 construct: made in house; host or cells: baculovirus/Sf9 insect cells (crude extract)
T1 sequence (P10275 1-920): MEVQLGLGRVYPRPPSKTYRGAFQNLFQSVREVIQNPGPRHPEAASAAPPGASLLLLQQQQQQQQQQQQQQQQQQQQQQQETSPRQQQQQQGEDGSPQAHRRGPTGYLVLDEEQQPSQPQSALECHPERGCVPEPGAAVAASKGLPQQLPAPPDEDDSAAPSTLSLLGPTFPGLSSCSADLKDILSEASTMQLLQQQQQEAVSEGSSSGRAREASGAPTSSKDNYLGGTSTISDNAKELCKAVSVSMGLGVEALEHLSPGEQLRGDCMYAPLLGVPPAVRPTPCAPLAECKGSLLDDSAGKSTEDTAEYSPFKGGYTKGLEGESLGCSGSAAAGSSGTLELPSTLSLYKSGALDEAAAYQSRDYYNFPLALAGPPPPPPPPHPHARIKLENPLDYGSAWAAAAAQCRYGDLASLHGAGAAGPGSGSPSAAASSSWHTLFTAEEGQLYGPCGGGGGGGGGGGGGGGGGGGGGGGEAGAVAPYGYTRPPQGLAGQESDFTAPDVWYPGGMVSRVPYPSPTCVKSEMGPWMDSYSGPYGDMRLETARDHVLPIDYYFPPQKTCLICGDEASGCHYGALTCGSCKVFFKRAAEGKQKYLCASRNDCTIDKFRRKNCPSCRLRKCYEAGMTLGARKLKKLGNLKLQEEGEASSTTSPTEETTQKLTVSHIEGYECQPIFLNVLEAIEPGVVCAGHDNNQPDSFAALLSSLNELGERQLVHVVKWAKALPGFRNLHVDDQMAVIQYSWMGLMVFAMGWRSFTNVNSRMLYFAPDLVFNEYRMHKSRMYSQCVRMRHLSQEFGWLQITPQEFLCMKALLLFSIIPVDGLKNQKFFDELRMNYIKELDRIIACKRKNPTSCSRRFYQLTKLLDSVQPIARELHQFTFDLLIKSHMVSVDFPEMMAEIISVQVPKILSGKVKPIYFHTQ
Assay: Competitive binding analysis on baculovirus/Sf9 generated hAR extracts with 3H-DHT tracer
Conditions: hAR extract, 1 nM 3H-DHT, one hour at 4° C; mean of multiple tests; read-out: AR Binding IC50
Procedure: The compounds of Formula I have affinity for the androgen receptor. […] The description below describes how the assay was carried out.
Competitive binding analysis was performed on baculovirus/Sf9 generated hAR extracts in the presence or absence of different concentrations of test agent and a fixed concentration of ^3H-dihydrotestosterone (^3H-DHT) as tracer. This binding assay method is a modification of a protocol previously described (Liao S., et. al. J. Steroid Biochem. 20:11-17 1984). Briefly, progressively decreasing concentrations of compounds are incubated in the presence of hAR extract (Chang et al. P.N.A.S. Vol. 89, pp. […], 1992), hydroxylapatite, and 1 nM^3H-DHT for one hour at 4° C. Subsequently, the binding reactions are washed three times to completely remove excess unbound ^3H-DHT. hAR bound ^3H-DHT levels are determined in the presence of compounds (=i.e competitive binding) and compared to levels bound when no competitor is present (=i.e. maximum binding). Compound binding affinity to the hAR is expressed as the concentration of compound at which one half of the maximum binding is inhibited. Table II below provides the results that were obtained for selected compounds (reported data is the mean of multiple tests as shown below)

Molecule | IC50
2-(4-Cyano-3-trifluoromethyl-phenoxy)-4-methyl-pentanoic acid (2H-imidazo[1,2-a]pyridin-3-yl)-methyl)amide [Example 60] | 318 nM
COc1ccc([C@@H](C)NC(=O)C(CC(C)C)Oc2ccc(C#N)c(C(F)(F)F)c2)cc1 (stereo in doubt) [Example 110, 2-(4-Cyano-3-trifluoromethyl-phenoxy)-4-methyl-pentanoic acid [1-(4-methoxy-phenyl)-ethyl]-amide] | 340 nM
CC(C)CC(Oc1ccc(C#N)c(C(F)(F)F)c1)C(=O)N[C@@H](C)c1ccccc1 (stereo in doubt) [Example 112, 2-(4-Cyano-3-trifluoromethyl-phenoxy)-4-methyl-pentanoic acid (1-phenyl-ethyl)-amide] | 329 nM
CC(C)CC(Oc1ccc(C#N)c(C(F)(F)F)c1)C(=O)N[C@H](C)c1ccccc1 (stereo in doubt) [Example 122, 2-(4-Cyano-3-trifluoromethyl-phenoxy)-4-methyl-pentanoic acid (1-phenyl-ethyl)-amide] | 329 nM
CCNC(=O)C(CC(C)C)Oc1ccc(C#N)c(C(F)(F)F)c1 (centres unmarked) [Example 3, 2-(4-Cyano-3-trifluoromethyl-phenoxy)-4-methyl-pentanoic acid ethylamide] | 247 nM
CCCC(Oc1ccc(C#N)c(C(F)(F)F)c1)C(=O)NC(C)c1ccc(O)cc1 (centres unmarked) [Example 6, 2-(4-Cyano-3-trifluoromethyl-phenoxy)-pentanoic acid [1-(4-hydroxy-phenyl)ethyl]-amide] | 455 nM
CC(C)CC(Oc1ccc(C#N)c(C(F)(F)F)c1)C(=O)NCc1ccncc1 (centres unmarked) [Example 16, 2-(4-Cyano-3-trifluoromethyl-phenoxy)-4-methyl-pentanoic acid (pyridin-4-yl-methyl)-amide] | 368 nM
CCCC(Oc1ccc(C#N)c(C(F)(F)F)c1)C(=O)NC(C)c1cccs1 (centres unmarked) [Example 17, 2-(4-Cyano-3-trifluoromethyl-phenoxy)-pentanoic acid (1-thiophen-2-yl-ethyl)amide] | 1000 nM
Cc1cccnc1CNC(=O)C(CC(C)C)Oc1ccc(C#N)c(C(F)(F)F)c1 (centres unmarked) [Example 20, 2-(4-Cyano-3-trifluoromethyl-phenoxy)-4-methyl-pentanoic acid (3-methyl-pyridin-2-yl-methyl)-amide] | 410 nM
CSCCCNC(=O)C(CC(C)C)Oc1ccc(C#N)c(C(F)(F)F)c1 (centres unmarked) [Example 21, 2-(4-Cyano-3-trifluoromethyl-phenoxy)-4-methyl-pentanoic acid (3-methylsulfanyl-propyl)-amide] | 362 nM
CC(C)CC(Oc1ccc(C#N)c(C(F)(F)F)c1)C(=O)NCC1Cc2ccccc2CO1 (centres unmarked) [Example 27, 2-(4-Cyano-3-trifluoromethyl-phenoxy)-4-methyl-pentanoic acid (isochroman-3-yl-methyl)-amide] | 214 nM
CCCC(Oc1ccc(C#N)c(C(F)(F)F)c1)C(=O)NCC1Cc2ccccc2CO1 (centres unmarked) [Example 32, 2-(4-Cyano-3-trifluoromethyl-phenoxy)-pentanoic acid (isochroman-3-yl-methyl)amide] | 407 nM
CCCC(Oc1ccc(C#N)c(C(F)(F)F)c1)C(=O)NCc1cccc(OC)c1 (centres unmarked) [Example 40, 2-(4-Cyano-3-trifluoromethyl-phenoxy)-pentanoic acid-3-methoxy-benzylamide] | 241 nM
CCCC(Oc1ccc(C#N)c(C(F)(F)F)c1)C(=O)NCCc1ccc(C)cc1 (centres unmarked) [Example 50, 2-(4-Cyano-3-trifluoromethyl-phenoxy)-pentanoic acid-(2-p-tolyl-ethyl)-amide] | 399 nM
CCCC(Oc1ccc(C#N)c(C(F)(F)F)c1)C(=O)NCCc1ccccc1OC (centres unmarked) [Example 51, 2-(4-Cyano-3-trifluoromethyl-phenoxy)-pentanoic acid-[2-(2-methoxy-phenyl)ethyl]-amide] | 381 nM
CC(C)CC(Oc1ccc(C#N)c(C(F)(F)F)c1)C(=O)N(Cc1ccccc1)C(C)C (centres unmarked) [Example 63, 2-(4-Cyano-3-trifluoromethyl-phenoxy)-4-methyl-pentanoic acid benzyl-isopropyl-amide] | 482 nM
CCCC(Oc1ccc(C#N)c(C(F)(F)F)c1)C(=O)N(Cc1ccccc1)C(C)C (centres unmarked) [Example 67, 2-(4-Cyano-3-trifluoromethyl-phenoxy)-pentanoic acid benzyl-isopropyl-amide] | 440 nM
CC(C)CC(Oc1ccc(C#N)c(C(F)(F)F)c1)C(=O)NC(C)c1ccc(O)cc1 (centres unmarked) [Example 69, 2-(4-Cyano-3-trifluoromethyl-phenoxy)-4-methyl-pentanoic acid [1-(4-hydroxyphenyl)-ethyl]-amide] | 341 nM
CC(C)CC(Oc1ccc(C#N)c(C(F)(F)F)c1)C(=O)NCc1ccc(C(C)C)cc1 (centres unmarked) [Example 70, 2-(4-Cyano-3-trifluoromethyl-phenoxy)-4-methyl-pentanoic acid 4-isopropyl-benzylamide] | 253 nM
COc1cccc(CNC(=O)C(CC(C)C)Oc2ccc(C#N)c(C(F)(F)F)c2)c1 (centres unmarked) [Example 71, 2-(4-Cyano-3-trifluoromethyl-phenoxy)-4-methyl-pentanoic acid-3-methoxy-benzylamide] | 288 nM
CCC(C)CNC(=O)C(CC(C)C)Oc1ccc(C#N)c(C(F)(F)F)c1 (centres unmarked) [Example 75, 2-(4-Cyano-3-trifluoromethyl-phenoxy)-4-methyl-pentanoic acid-(2-methyl-butyl)amide] | 417 nM
Cc1ncccc1CNC(=O)C(CC(C)C)Oc1ccc(C#N)c(C(F)(F)F)c1 (centres unmarked) [Example 76, 2-(4-Cyano-3-trifluoromethyl-phenoxy)-4-methyl-pentanoic acid (2-methyl-pyridin-3-yl-methyl)-amide] | 479 nM
CCCC(Oc1ccc(C#N)c(C(F)(F)F)c1)C(=O)NCc1cccc2ccccc12 (centres unmarked) [Example 77, 2-(4-Cyano-3-trifluoromethyl-phenoxy)-pentanoic acid (naphthalene-1-yl-methyl)amide] | 292 nM
Cc1ccc(NC(=O)C(CC(C)C)Oc2ccc(C#N)c(C(F)(F)F)c2)cc1O (centres unmarked) [Example 88, 2-(4-Cyano-3-trifluoromethyl-phenoxy)-4-methyl-pentanoic acid (3-hydroxy-4-methyl-phenyl)-amide] | 296 nM
CCCC(Oc1ccc(C#N)c(C(F)(F)F)c1)C(=O)NCCCSC (centres unmarked) [Example 89, 2-(4-Cyano-3-trifluoromethyl-phenoxy)-pentanoic acid (3-methylsulfanyl-propyl)amide] | 486 nM
CCCC(Oc1ccc(C#N)c(C(F)(F)F)c1)C(=O)NCCSC (centres unmarked) [Example 90, 2-(4-Cyano-3-trifluoromethyl-phenoxy)-pentanoic acid (2-methylsulfanyl-ethyl)amide] | 736 nM
COc1ccc2[nH]cc(CCNC(=O)C(CC(C)C)Oc3ccc(C#N)c(C(F)(F)F)c3)c2c1 (centres unmarked) [Example 98, 2-(4-Cyano-3-trifluoromethyl-phenoxy)-4-methyl-pentanoic acid [2-(5-methoxy-1H-indol-3-yl)-ethyl]-amide] | 279 nM
CCCC(Oc1ccc(C#N)cc1Cl)C(=O)OCC (centres unmarked) [Example 100, 2-(2-Chloro-4-cyano-phenoxy)-pentanoic acid ethyl ester] | 347 nM
CCCOCCCNC(=O)C(CCC)Oc1ccc(C#N)c(C(F)(F)F)c1 (centres unmarked) [Example 115, 2-(4-Cyano-3-trifluoromethyl-phenoxy)-pentanoic acid (3-propoxy-propyl)-amide] | 428 nM
